Columns and labels:
[1] = biological target: T1, aldehyde oxidases (human liver cytosol) (Homo sapiens, UniProt Q06278); format: in vitro ADME; conditions: human liver cytosol 1 mg/mL, 1 μM compound; for HLC % remaining (1 h incub.): 60 min incubation; for HLC % remaining (1 h incub.) / HLC T½ min: pH 7.4, 37° C.; for IntCl (Intrinsic Clearance): half-life approach
T1 construct: added to human liver cytosol (1 mg/mL protein content); from tissue; host or cells: human liver cytosol
Method: The aldehyde oxidases involvement in the metabolism of the test item was determined by comparison of the intrinsic clearance values in the presence and absence of aldehyde oxidases inhibitor hydralazine hydrochloride. The purpose of the study was to evaluate the in-vitro intrinsic clearance, the metabolic stability towards aldehyde oxidases (AO) activity and the metabolism of the test item in human liver cytosol. The intrinsic clearance was determined using the half-life approach, by measuring the substrate disappearance along 60 minutes incubation with human liver cytosol. Incubations were performed at the concentration of 1 μM. […] HPLC-MS/MS was used for the detection of the compound left over during the incubation. For intrinsic clearance determination samples were analyzed by high performance liquid chromatography (HPLC) on-line with mass spectrometry (MS) equipment. For the determination of aldehyde oxidases activity (i.e. positive control) of cytosol, phthalazine was incubated with human liver cytosol in presence and absence of the aldehyde oxidases inhibitor. On the day of the incubation, the compound was dissolved in DMSO at the concentration of 10 mM. Aliquots of this solution were added to the test system to a final concentration of […]. The percentage of DMSO in the final incubates was […]. Aliquots of the test item were added to human liver cytosol (1 mg/mL protein content) in Dulbecco's buffer, pH 7.4 at 37° C., to reach final concentration of 1 μM. Incubations were performed in a 48-well plate, under shaking. At 0, 5, 10, 20, 30 and 60 minutes incubation, 50 μL aliquots of the incubate were sampled, poured in 80 μL of ice-cold acetonitrile and 20 μL of 1 μM warfarin in acetonitrile (injection control) and centrifuged at 2500 rpm for 20 minutes. The supernatant was immediately analysed by LC-MS/MS.
The test item was incubated in parallel, in duplicate, at the concentration of 1 μM in Dulbecco's buffer, pH 7.4 for 60 min at 37° C. in the presence of 10 μM hydralazine hydrochloride (aldehyde oxidases inhibitor).
The chemical stability of the test item was checked in parallel by incubating the test item in single at the concentration of 1 μM in Dulbecco's buffer, pH 7.4 for 60 min at 37° C. (negative control).
The intrinsic clearance (CLint) was calculated using the half-life approach. Half-life and CLint were determined from the concentration (area counts) remaining at the different sampling points using the LC-MS/MS method. By plotting the natural logarithmic area of the compound remaining against the time, the slope was calculated by linear regression analysis and converted into the half-life (t½) and CLint expressed as μL/min/mg protein according to the following formulae: […]

[2] = biological target: Cdc7 (Homo sapiens, UniProt O00311); test: Cdc7 biochemical assay, ADPGlo assay format
Chain of Cdc7 (O00311 whole entry): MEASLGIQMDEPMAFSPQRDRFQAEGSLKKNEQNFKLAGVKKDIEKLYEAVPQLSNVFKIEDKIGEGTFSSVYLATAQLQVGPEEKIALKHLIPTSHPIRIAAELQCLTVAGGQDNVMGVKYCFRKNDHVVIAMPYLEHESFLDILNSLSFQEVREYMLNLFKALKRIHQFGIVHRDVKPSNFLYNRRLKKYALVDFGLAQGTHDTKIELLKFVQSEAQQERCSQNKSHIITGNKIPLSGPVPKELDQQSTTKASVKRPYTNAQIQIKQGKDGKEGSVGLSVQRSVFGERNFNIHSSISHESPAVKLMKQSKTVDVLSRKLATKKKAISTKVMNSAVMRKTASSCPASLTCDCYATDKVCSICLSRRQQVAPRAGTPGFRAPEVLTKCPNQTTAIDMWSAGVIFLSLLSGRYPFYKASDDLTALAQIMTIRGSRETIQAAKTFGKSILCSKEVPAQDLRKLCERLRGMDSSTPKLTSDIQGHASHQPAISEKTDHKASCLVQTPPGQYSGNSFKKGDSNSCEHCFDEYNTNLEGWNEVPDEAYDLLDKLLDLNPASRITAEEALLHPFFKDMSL
Chain of Cdc7 (Q9UBU7 whole entry partner): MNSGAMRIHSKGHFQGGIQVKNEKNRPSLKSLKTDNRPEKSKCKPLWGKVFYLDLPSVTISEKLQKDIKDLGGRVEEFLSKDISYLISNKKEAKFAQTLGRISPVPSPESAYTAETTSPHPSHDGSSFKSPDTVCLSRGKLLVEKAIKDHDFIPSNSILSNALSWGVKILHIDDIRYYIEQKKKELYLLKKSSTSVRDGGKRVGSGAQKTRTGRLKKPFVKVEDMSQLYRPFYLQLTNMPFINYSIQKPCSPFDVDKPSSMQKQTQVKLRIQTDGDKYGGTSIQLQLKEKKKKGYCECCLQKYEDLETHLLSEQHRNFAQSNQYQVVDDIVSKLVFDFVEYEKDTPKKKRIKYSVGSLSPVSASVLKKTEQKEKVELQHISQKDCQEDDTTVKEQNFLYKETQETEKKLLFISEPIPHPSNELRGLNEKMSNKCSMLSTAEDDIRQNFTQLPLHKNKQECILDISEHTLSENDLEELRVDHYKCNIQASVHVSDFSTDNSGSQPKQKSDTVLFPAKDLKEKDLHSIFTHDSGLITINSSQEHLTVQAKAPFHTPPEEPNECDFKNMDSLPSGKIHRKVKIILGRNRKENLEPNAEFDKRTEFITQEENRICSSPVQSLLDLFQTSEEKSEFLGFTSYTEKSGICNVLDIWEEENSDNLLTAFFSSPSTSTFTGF
Method: The biochemical activity of compounds was determined by incubation with specific enzymes and substrate, followed by quantification of the ADP product. Compounds were 4-fold serially diluted from 10 to 0.0006 uM; in the case of the pre-incubation step, the enzyme is added to the inhibitor solution and the mixture is left to incubate for 30 minutes at room temperature (r.t.). The reaction started with the addition of the substrate and the ATP, when the enzyme was already present in the preincubation step, or substrate, ATP and enzyme when the preincubation step was not present. The concentrations of ATP, substrate and reaction buffer are described above. The assays were run in a robotized format on 384-well plates. […] At the end of the incubation time, an equal volume of ADPGlo Reagent 1 (Promega) was added to stop the reaction and to remove all unreacted ATP. After 60 minutes, an equal volume of ADPGlo Reagent 2 (Promega) was added to convert ADP in ATP and then ATP in light by luciferase reaction.
y=bottom+(top−bottom)/(1+10^((log IC50−x)*slope))
where x is the logarithm of the inhibitor concentration, y is the response; y starts at bottom and goes to top with a sigmoid shape.

T1 sequence (Q06278 whole entry): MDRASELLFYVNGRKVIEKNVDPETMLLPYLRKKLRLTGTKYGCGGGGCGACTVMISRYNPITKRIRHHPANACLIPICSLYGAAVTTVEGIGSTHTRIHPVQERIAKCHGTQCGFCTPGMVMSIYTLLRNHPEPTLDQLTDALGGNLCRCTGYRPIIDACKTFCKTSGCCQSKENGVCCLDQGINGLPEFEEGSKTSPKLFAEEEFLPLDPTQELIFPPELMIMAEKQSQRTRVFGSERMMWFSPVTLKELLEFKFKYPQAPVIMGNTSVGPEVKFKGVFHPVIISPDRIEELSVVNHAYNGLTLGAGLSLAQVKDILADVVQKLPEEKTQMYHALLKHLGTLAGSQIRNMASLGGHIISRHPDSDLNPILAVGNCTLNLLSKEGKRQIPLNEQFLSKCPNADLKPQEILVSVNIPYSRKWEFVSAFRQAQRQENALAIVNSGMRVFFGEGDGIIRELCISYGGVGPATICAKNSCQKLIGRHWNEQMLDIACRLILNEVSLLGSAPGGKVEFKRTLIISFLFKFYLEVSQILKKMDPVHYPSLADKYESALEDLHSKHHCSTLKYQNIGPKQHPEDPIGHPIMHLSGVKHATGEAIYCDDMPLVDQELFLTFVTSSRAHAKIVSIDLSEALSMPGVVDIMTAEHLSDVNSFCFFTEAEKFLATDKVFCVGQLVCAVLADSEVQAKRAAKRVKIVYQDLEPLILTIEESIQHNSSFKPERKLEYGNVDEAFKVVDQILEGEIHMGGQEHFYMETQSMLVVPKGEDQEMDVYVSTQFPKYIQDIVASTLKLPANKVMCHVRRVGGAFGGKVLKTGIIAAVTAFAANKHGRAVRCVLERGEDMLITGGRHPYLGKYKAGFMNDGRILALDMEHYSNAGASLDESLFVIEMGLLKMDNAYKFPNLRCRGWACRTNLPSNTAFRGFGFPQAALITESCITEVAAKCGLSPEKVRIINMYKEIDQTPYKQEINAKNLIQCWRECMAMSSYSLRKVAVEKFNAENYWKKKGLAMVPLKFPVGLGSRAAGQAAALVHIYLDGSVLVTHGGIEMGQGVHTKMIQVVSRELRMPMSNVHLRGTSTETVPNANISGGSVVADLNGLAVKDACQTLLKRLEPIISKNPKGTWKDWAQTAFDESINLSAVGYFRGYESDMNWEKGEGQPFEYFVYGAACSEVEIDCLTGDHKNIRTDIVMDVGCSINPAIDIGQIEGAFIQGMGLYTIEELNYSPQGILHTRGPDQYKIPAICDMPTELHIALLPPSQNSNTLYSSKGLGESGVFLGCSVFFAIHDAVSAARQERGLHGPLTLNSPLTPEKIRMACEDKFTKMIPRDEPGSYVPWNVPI

With `NC(=O)c1cc(-c2ccnc3[nH]ccc23)[nH]c1-c1cccc(Cl)c1Cl` [comp 7, 2-(2,3-dichlorophenyl)-5-(1H-pyrrolo[2,3-b]pyridin-4-yl)-1H-pyrrole-3-carboxamide] the “HLC % remaining (1 h incub.)” value [1] was 95%, the “IntCl (Intrinsic Clearance)” value [1] was 2.9 μL/min/mg protein and the “HLC T½ min” value [1] was 3.98 h. It also gave an IC50 [2] of 1 nM.
For `Cc1ccc(-c2[nH]c(-c3ccnc4[nH]ccc34)cc2C(N)=O)c(C(F)(F)F)c1` [comp 8, 2-[4-methyl-2-(trifluoromethyl)phenyl]-5-(1H-pyrrolo[2,3-b]pyridin-4-yl)-1H-pyrrole-3-carboxamide], the “HLC % remaining (1 h incub.)” value [1] was 85%, the “IntCl (Intrinsic Clearance)” value [1] was 2.9 μL/min/mg protein and the “HLC T½ min” value [1] was 3.98 h. It also gave an IC50 [2] of 3 nM.
`Cc1ccc(-c2[nH]c(-c3ccnc4[nH]ccc34)cc2C(N)=O)c(Cl)c1` [comp 9, 2-(2-chloro-4-methylphenyl)-5-(1H-pyrrolo[2,3-b]pyridin-4-yl)-1H-pyrrole-3-carboxamide] was tested, and the “HLC % remaining (1 h incub.)” value [1] was 100%, the “IntCl (Intrinsic Clearance)” value [1] was 2.9 μL/min/mg protein and the “HLC T½ min” value [1] was 3.98 h. It also gave an IC50 [2] of 1 nM.
With `Cc1ccc(-c2[nH]c(-c3ccnc4[nH]ccc34)cc2C(N)=O)c(F)c1F` [comp 10, 2-(2,3-difluoro-4-methylphenyl)-5-(1H-pyrrolo[2,3-b]pyridin-4-yl)-1H-pyrrole-3-carboxamide] the “HLC % remaining (1 h incub.)” value [1] was 95%, the “IntCl (Intrinsic Clearance)” value [1] was 2.9 μL/min/mg protein and the “HLC T½ min” value [1] was 3.98 h. For the same compound, the IC50 [2] was 3 nM.
For `Cc1cc(C(F)(F)F)ccc1-c1[nH]c(-c2ccnc3[nH]ccc23)cc1C(N)=O` [comp 11, 2-[2-methyl-4-(trifluoromethyl)phenyl]-5-(1H-pyrrolo[2,3-b]pyridin-4-yl)-1H-pyrrole-3-carboxamide], the “HLC % remaining (1 h incub.)” value [1] was 100%, the “IntCl (Intrinsic Clearance)” value [1] was 2.9 μL/min/mg protein and the “HLC T½ min” value [1] was 3.98 h. It also gave an IC50 [2] of 7 nM.
In the case of `COc1cccc(-c2[nH]c(-c3ccnc4[nH]ccc34)cc2C(N)=O)c1F` [comp 12, 2-(2-fluoro-3-methoxyphenyl)-5-(1H-pyrrolo[2,3-b]pyridin-4-yl)-1H-pyrrole-3-carboxamide], the “HLC % remaining (1 h incub.)” value [1] is reported as 97%, the “IntCl (Intrinsic Clearance)” value [1] is reported as 2.9 μL/min/mg protein and the “HLC T½ min” value [1] is reported as 3.98 h. The IC50 [2] was 4 nM.
With `NC(=O)c1cc(-c2ccnc3[nH]ccc23)[nH]c1-c1cccc(F)c1Cl` [comp 13, 2-(2-chloro-3-fluorophenyl)-5-(1H-pyrrolo[2,3-b]pyridin-4-yl)-1H-pyrrole-3-carboxamide] the “HLC % remaining (1 h incub.)” value [1] was 100%, the “IntCl (Intrinsic Clearance)” value [1] was 2.9 μL/min/mg protein and the “HLC T½ min” value [1] was 3.98 h. It also gave an IC50 [2] of 1 nM.
`Cc1cccc(-c2[nH]c(-c3ccnc4[nH]ccc34)cc2C(N)=O)c1F` [comp 14, 2-(2-fluoro-3-methylphenyl)-5-(1H-pyrrolo[2,3-b]pyridin-4-yl)-1H-pyrrole-3-carboxamide] was tested, and the “HLC % remaining (1 h incub.)” value [1] was 100%, the “IntCl (Intrinsic Clearance)” value [1] was 2.9 μL/min/mg protein and the “HLC T½ min” value [1] was 3.98 h. It also gave an IC50 [2] of 10 nM.
In the case of `Cc1c(-c2[nH]c(-c3ccnc4[nH]ccc34)cc2C(N)=O)cccc1C(F)(F)F` [comp 15, 2-[2-methyl-3-(trifluoromethyl)phenyl]-5-(1H-pyrrolo[2,3-b]pyridin-4-yl)-1H-pyrrole-3-carboxamide], the “HLC % remaining (1 h incub.)” value [1] is reported as 100%, the “IntCl (Intrinsic Clearance)” value [1] is reported as 2.9 μL/min/mg protein and the “HLC T½ min” value [1] is reported as 3.98 h. It also gave an IC50 [2] of 6 nM.
In the case of `NC(=O)c1cc(-c2cc(N)ncn2)[nH]c1-c1ccc(Cl)cc1Cl` [compound 42, 5-(6-aminopyrimidin-4-yl)-2-(2,4-dichlorophenyl)-1H-pyrrole-3-carboxamide], the “HLC % remaining (1 h incub.)” value [1] is reported as 100%, the “IntCl (Intrinsic Clearance)” value [1] is reported as 2.9 μL/min/mg protein and the “HLC T½ min” value [1] is reported as 3.98 h. For the same compound, the IC50 [2] was 90 nM.
With `NC(=O)c1cc(-c2cn[nH]c2)[nH]c1-c1ccc(Cl)cc1Cl` [compound 43, 2-(2,4-dichlorophenyl)-5-(1H-pyrazol-4-yl)-1H-pyrrole-3-carboxamide] the “HLC % remaining (1 h incub.)” value [1] was 100%, the “IntCl (Intrinsic Clearance)” value [1] was 2.9 μL/min/mg protein and the “HLC T½ min” value [1] was 3.98 h. The IC50 [2] was 13 nM.
In the case of `Cc1n[nH]cc1-c1cc(C(N)=O)c(-c2ccc(Cl)cc2Cl)[nH]1` [compound 44, 2-(2,4-dichlorophenyl)-5-(3-methyl-1H-pyrazol-4-yl)-1H-pyrrole-3-carboxamide], the “HLC % remaining (1 h incub.)” value [1] is reported as 100%, the “IntCl (Intrinsic Clearance)” value [1] is reported as 2.9 μL/min/mg protein and the “HLC T½ min” value [1] is reported as 3.98 h. The IC50 [2] was 48 nM.
In the case of `NC(=O)c1cc(-c2ccnc3[nH]ccc23)[nH]c1-c1ccc(Cl)cc1Cl` [compound 46, 2-(2,4-dichlorophenyl)-5-(1H-pyrrolo[2,3-b]pyridin-4-yl)-1H-pyrrole-3-carboxamide], the “HLC % remaining (1 h incub.)” value [1] is reported as 100%, the “IntCl (Intrinsic Clearance)” value [1] is reported as 2.9 μL/min/mg protein and the “HLC T½ min” value [1] is reported as 3.98 h. For the same compound, the IC50 [2] was 1 nM.
With `NC(=O)c1cc(-c2c[nH]nc2C(F)(F)F)[nH]c1-c1ccc(Cl)cc1Cl` [compound 48, 2-(2,4-dichlorophenyl)-5-[3-(trifluoromethyl)-1H-pyrazol-4-yl]-1H-pyrrole-3-carboxamide] the “HLC % remaining (1 h incub.)” value [1] was 100%, the “IntCl (Intrinsic Clearance)” value [1] was 2.9 μL/min/mg protein and the “HLC T½ min” value [1] was 3.98 h. For the same compound, the IC50 [2] was 188 nM.
`Cc1ccc(-c2[nH]c(-c3cn[nH]c3)cc2C(N)=O)c(F)c1` [compound 49, 2-(2-fluoro-4-methylphenyl)-5-(1H-pyrazol-4-yl)-1H-pyrrole-3-carboxamide] was tested, and the “HLC % remaining (1 h incub.)” value [1] was 100%, the “IntCl (Intrinsic Clearance)” value [1] was 2.9 μL/min/mg protein and the “HLC T½ min” value [1] was 3.98 h. The IC50 [2] was 18 nM.

Reference: US20240217969A1, “SUBSTITUTED PYRROLE CARBOXAMIDES, PROCESS FOR THEIR PREPARATION AND THEIR USE AS KINASE INHIBITORS” (priority 2021, published 2024)
